Assay results: the supplement of paper PMC10307832

Experiments:
Assay in all cases: relative viability (nuclei count vs DMSO), 5 days (fraction); higher = more cells survive
ALW-II-49-7 + Olaparib = compound: Cc1ccc(C(=O)Nc2cccc(C(F)(F)F)c2)cc1Nc1cncc(C(N)=O)c1 [ALW-II-49-7] + O=C(c1cc(Cc2n[nH]c(=O)c3ccccc23)ccc1F)N1CCN(C(=O)C2CC2)CC1 [Olaparib] (partner 8 µM)
How it was run: (§1)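 Relative viability divides the nuclei count in treated wells by that in vehicle wells. Lung cancer cell lines were seeded in 1536-well plates, dosed by pin tool the next day, and fixed and stained after 5 days in one step with final 0.05% Triton X-100, 1% formaldehyde and 1 ug/ml Hoechst. Dosing was a single drug or a fixed anchor-drug dose plus five library-drug doses (not always all listed) in √10 steps, and values are medians of duplicate plates imaged at 4×.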

Dasatinib + Crizotinib = compound: Cc1nc(Nc2ncc(C(=O)Nc3c(C)cccc3Cl)s2)cc(N2CCN(CCO)CC2)n1 [Dasatinib] + C[C@@H](Oc1cc(-c2cnn(C3CCNCC3)c2)cnc1N)c1c(Cl)ccc(F)c1Cl [Crizotinib] (partner 1 µM)
How it was run: as §1

XMD13-2 + Foretinib = compound: C1CC1C(=O)NC2=NNC3=C2C=CC(=C3)C4=CC(=CC=C4)C(=O)NC5CC5 [XMD13-2] + COc1cc2c(Oc3ccc(NC(=O)C4(C(=O)Nc5ccc(F)cc5)CC4)cc3F)ccnc2cc1OCCCN1CCOCC1 [Foretinib] (partner 0.25 µM)
How it was run: as §1

Dasatinib + Trametinib = compound: Cc1nc(Nc2ncc(C(=O)Nc3c(C)cccc3Cl)s2)cc(N2CCN(CCO)CC2)n1 [Dasatinib] + CC(=O)Nc1cccc(-n2c(=O)n(C3CC3)c(=O)c3c(Nc4ccc(I)cc4F)n(C)c(=O)c(C)c32)c1 [Trametinib] (partner 0.02 µM)
How it was run: as §1

Cell Line	relative viability (ALW-II-49-7 + Olaparib; first compound 0.08 µM)	relative viability (ALW-II-49-7 + Olaparib; first compound 0.253 µM)	relative viability (ALW-II-49-7 + Olaparib; first compound 0.8 µM)	relative viability (ALW-II-49-7 + Olaparib; first compound 8 µM)	relative viability (Dasatinib + Crizotinib; first compound 0.005 µM)	relative viability (Dasatinib + Crizotinib; first compound 0.01581 µM)	relative viability (Dasatinib + Crizotinib; first compound 0.05 µM)	relative viability (Dasatinib + Crizotinib; first compound 0.1581 µM)	relative viability (Dasatinib + Crizotinib; first compound 0.5 µM)	relative viability (XMD13-2 + Foretinib; first compound 0.05 µM)	relative viability (XMD13-2 + Foretinib; first compound 0.1581 µM)	relative viability (XMD13-2 + Foretinib; first compound 0.5 µM)	relative viability (XMD13-2 + Foretinib; first compound 1.581 µM)	relative viability (XMD13-2 + Foretinib; first compound 5 µM)	relative viability (Dasatinib + Trametinib; first compound 0.005 µM)	relative viability (Dasatinib + Trametinib; first compound 0.01581 µM)	relative viability (Dasatinib + Trametinib; first compound 0.05 µM)	relative viability (Dasatinib + Trametinib; first compound 0.1581 µM)	relative viability (Dasatinib + Trametinib; first compound 0.5 µM)	relative viability (ALW-II-49-7 + Olaparib; first compound 2.53 µM)
LK-2	0.803	0.682	0.576	0.817	0.266	0.209	0.222	0.189	0.179	1.45	0.959	1.06	1.16	1.16	0.765	0.399	0.414	0.263	0.246	
LOU-NH91	0.846	0.946	0.923	0.805	0.777	0.658	0.691	0.498	0.354	1.01	0.979	1	0.943	1.04	0.79	0.752	0.698	0.562	0.393	
LU99A		0.292	0.249	0.288	0.538	0.458	0.473	0.274	0.301	0.977	0.734	0.831	0.824	0.58	0.539	0.576	0.458	0.372	0.328	0.254
LXF-289	1.02	0.909	1.09	1.09	0.849	0.912	0.857	0.197	0.136	0.979	0.973	0.897	0.98	1.06	0.678	0.746	0.821	0.555	0.219	1.26
NCI-H23	0.328	0.363	0.383	0.298	0.409	0.425	0.385	0.304	0.213	1.21	0.83	1.02	1.06	1.01	0.376	0.278	0.231	0.188	0.168	0.294
NCI-H322M	0.288	0.742	0.638	0.716	0.953	0.785	0.753	0.336	0.155	1.06	1.02	0.909	0.971	1.09	0.543	0.44	0.429	0.333	0.269	0.732
NCI-H358	0.431	0.545	0.644	0.387	0.507	0.437	0.349	0.282	0.194	0.805	0.767	0.904	0.685	0.335	0.151	0.116	0.105	0.0936	0.089	0.452
NCI-H441	0.592	0.52	0.592	0.383	0.62	0.626	0.617	0.309	0.162	1.1	0.902	0.956	1.06	0.661	0.409	0.418	0.328	0.208	0.181	0.47
NCI-H460	0.435	0.704	0.414	0.325	0.729	0.602	0.432	0.243	0.218	1.1	1.11	1.05	1.06	1.01	0.0853	0.0968	0.0795	0.0504	0.0455	0.143
NCI-H520	0.306	0.339	0.33	0.328	0.656	0.442	0.419	0.144	0.138	0.876	0.754	0.536	0.637	0.402	0.614	0.322	0.298	0.144	0.205	0.31
NCI-H596	0.523	0.616	0.774	0.757	0.966	0.811	0.637	0.519	0.315	0.89	0.62	1.03	0.852	0.888	0.7	0.578	0.56	0.431	0.323	0.599
NCI-H647	0.619	0.386	0.636	0.367	0.734	0.526	0.285	0.149	0.133	1.36	1.13	1.31	1.21	0.796	0.372	0.224	0.244	0.145	0.116	0.51
NCI-H650	0.42	0.388	0.416	0.304	0.741	0.61	0.632	0.444	0.3	1.16	1.02	1.14	1.06	0.972	0.888	0.899	0.847	0.503	0.458	0.351
NCI-H661	0.736	0.85	0.762	0.733	1.08	1.19	0.972	0.8	0.547	1	1.06	1.04	1.02	0.875	0.629	0.49	0.532	0.445	0.338	0.801
NCI-H727	0.663	0.843	0.603	0.597	0.707	0.548	0.491	0.241	0.223	1.21	0.903	0.946	0.738	0.737	0.355	0.281	0.322	0.296	0.25	0.501
NCI-H838	0.715	0.744	0.881	0.7	0.571	0.577	0.306	0.23	0.202	1.19	1.05	1.01	1.04	1.01	0.486	0.435	0.365	0.227	0.142	0.844
